Data on 3 compounds can be found in US4303592A (priority 1980, dated 1981).

Read-outs that look alike come from different tables or passages of the source. Bounds are passed on as bounds.

Series [1] has as its system chymotrypsin. The note with it: large excess with respect to enzyme; cited from earlier work.
Series [2] relates to trypsin. The settings on record: large excess with respect to enzyme; cited from earlier work.
Series [3] addresses T1, Trypsin (Bos taurus, UniProt P00760).
T1 sequence (P00760 24-246): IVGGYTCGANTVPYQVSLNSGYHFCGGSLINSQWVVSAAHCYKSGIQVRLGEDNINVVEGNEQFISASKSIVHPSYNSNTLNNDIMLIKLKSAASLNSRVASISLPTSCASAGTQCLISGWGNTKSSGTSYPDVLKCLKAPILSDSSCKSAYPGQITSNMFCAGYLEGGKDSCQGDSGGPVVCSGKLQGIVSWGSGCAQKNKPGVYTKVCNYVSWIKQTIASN
As to the kind of experiment: inactivation of trypsin by meta amidinophenylmethylsulfonylfluoride. The class given is biochemical, bovine. The note with it: equimolar or greater amounts of reagent; FIG. 2. The procedure: (§1) m-Amidinophenylmethylsulfonylfluoride was tested for inhibitory activity against bovine trypsin and chymotrypsin.

Series [4] relates to chymotrypsin. As to the kind of experiment: inhibition of chymotrypsin by m-amidinophenylmethylsulfonylfluoride. The note with it: 30 minutes, four-fold molar excess. Format: biochemical. The procedure:
as §1

Series [5] deals with T1, Trypsin. As to the kind of experiment: inhibition/inactivation of bovine trypsin. Format: biochemical. The settings on record: for % Activity Remaining: Trypsin 60.6 μM, PAPMSF 127 μM.
In series [6] the test system is chymotrypsin. As to the kind of experiment: inhibition of bovine chymotrypsin. Format: biochemical. The settings on record: neutral pH, approximately 10-fold excess of reagent over enzyme; FIG. 1.
Series [7] in a line: stability.
In series [8] the test system is Cl-r. As to the kind of experiment: inhibition/inactivation of human Clr. Format: biochemical.
Series [9] has as its system serine proteases. As to the kind of experiment: reactivity of para versus meta form.
Series [10] concerns serine proteases. As to the kind of experiment: serine protease inactivation by known inactivators (background). The settings on record: approximately 2:1 reagent:enzyme; Table 1. The class given is biochemical.
Series [11] in a line: solubility in water.
Series [12] has as its target T2, Cl-s (Homo sapiens, UniProt P09871).
T2 sequence (P09871 438-688 limits assumed): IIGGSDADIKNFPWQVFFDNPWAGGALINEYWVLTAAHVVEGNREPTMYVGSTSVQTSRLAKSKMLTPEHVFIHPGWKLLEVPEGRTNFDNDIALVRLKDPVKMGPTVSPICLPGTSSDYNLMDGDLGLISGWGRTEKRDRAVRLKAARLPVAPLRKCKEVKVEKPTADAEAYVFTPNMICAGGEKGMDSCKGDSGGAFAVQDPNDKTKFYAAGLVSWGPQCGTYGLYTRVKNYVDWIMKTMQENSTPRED
T2 sequence (P09871 16-437 partner limits assumed): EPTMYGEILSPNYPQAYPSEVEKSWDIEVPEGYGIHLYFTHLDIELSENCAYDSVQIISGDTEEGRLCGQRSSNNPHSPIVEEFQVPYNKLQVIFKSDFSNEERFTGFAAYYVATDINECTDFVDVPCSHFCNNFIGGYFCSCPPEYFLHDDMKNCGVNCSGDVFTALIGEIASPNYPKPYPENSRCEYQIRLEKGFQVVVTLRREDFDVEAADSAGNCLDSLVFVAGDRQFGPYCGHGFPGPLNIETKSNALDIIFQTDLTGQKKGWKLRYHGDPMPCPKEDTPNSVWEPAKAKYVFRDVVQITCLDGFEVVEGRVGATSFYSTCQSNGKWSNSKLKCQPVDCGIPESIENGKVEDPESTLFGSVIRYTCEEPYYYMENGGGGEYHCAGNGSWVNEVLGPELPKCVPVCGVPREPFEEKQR
As to the kind of experiment: inhibition/inactivation of human Cls. Format: biochemical. The settings on record: for % Activity Remaining: Cl-s 27.5 μM, PAPMSF 64 μM.

Series [13] addresses Thrombin (Homo sapiens, UniProt P00734). As to the kind of experiment: inhibition/inactivation of human thrombin. Format: biochemical. The note with it: for % Activity Remaining: Thrombin 74.5 μM, PAPMSF 159 μM.
Series [14] deals with acetyl cholinesterase. As to the kind of experiment: inhibition of bovine acetyl cholinesterase.
[15] abbreviates: neutral pH, approximately 10-fold excess of reagent over enzyme, FIG. 1.

As usually defined, the solubility is how much of the substance goes into solution per volume. Higher therefore signals much dissolved substance.

`O=S(=O)(F)Cc1ccccc1` [Phenylmethanesulfonylfluoride]: the “inhibition (in words)” value in series [1] is “inhibits both trypsin and chymotrypsin”; in series [2] it was “inhibits both trypsin and chymotrypsin”.
Regarding `N=C(N)c1cccc(CS(=O)(=O)F)c1` [MAPMSF, m-Amidinophenylmethylsulfonylfluoride], in series [3], the “inactivation (in words)” value is on record as “slowly inactivated”. In series [4], the loss of activity result was “no loss of activity”.
`N=C(N)c1ccc(CS(=O)(=O)F)cc1` [PAPMSF, p-amidinophenylmethylsulfonylfluoride]: the “% Activity Remaining” value in series [5] (1 min) was determined as 0%; in [5] (5 min) it was 0%; in series [5] (10 min), 0%; in series [8] (Cl-r 4.8 μgm/ml, PAPMSF 130 μM, 10 min), 25%; in [12] (1 min), 60%; in series [12] (5 min), 59%. The “% Activity Remaining” value in series [12] (10 min) is on record as 52%; in [13] (1 min) it was 26%; in [13] (5 min), 24%; in series [13] (10 min) it was 21%. The “recovery of enzymatic activity after dialysis (irreversibility)” value in [5] (dialysis of inactivated trypsin) is reported as “did not lead to recovery of enzymatic activity”. Besides, the “inactivation (in words)” value in series [5] (setting [15]), in series [8] (setting [15]), in series [12] (setting [15]) and in series [13] (setting [15]) was “rapidly inactivated” each time. Besides, in series [5] (pH 3.0, 5.0 or 7.4), the “rate of inactivation of trypsin, pH dependence” value is reported as “essentially unchanged”. Besides, the “inhibition (in words)” value in series [6] and in [14] (setting [15]) was “not inhibited” throughout. Moreover, in series [7] (aqueous solutions above pH 8), the “stability in water at high pH” value was “can hydrolyze to sulfonic acid in water at high pH”. For the same compound, the “stability in solution in organic solvents” value in series [7] (methanol, acetone, ethanol, dimethylsulfoxide, acetonitrile, dimethylformamide and the like) is listed as “stable in solution in organic solvents”. Moreover, the “stability of salts at physiological conditions” value in series [7] (pH and contact with aqueous based body fluids) is reported as “good stability at physiological conditions”. In addition, the “reactivity / activity relative to meta form” value in series [9] is on record as “higher activity than the meta form”. The “inhibition at lower concentrations (in words)” value in [10] was “still an effective inhibitor”. The solubility in series [11] was ≤ 10 mM. The “reaction with acetyl cholinesterase (in words)” value in [14] is “does not react with acetyl cholinesterase”. Besides, the “toxic properties compared with diisopropylfluorophosphate (in words)” value in series [14] (inferred from lack of reaction with acetyl cholinesterase) is listed as “does not have the toxic properties previously described for diisopropylfluorophosphate”.
